{"source": "patent US5637624A", "about": "“Ring-substituted 2-amino-1,2,3,4-tetrahydronaphthalenes and 3-aminochromanes” (Eli Lilly and Company, priority 1993, dated 1997)", "key": {"5-HT1A receptors": {"target": "T1, 5-HT1A receptors (Rattus norvegicus, UniProt P19327)", "T1 construct": "synaptosomal membranes isolated from cerebral cortex; from tissue; host or cells: cerebral cortex of male Sprague-Dawley rats, crude synaptosomal membranes", "T1 sequence (P19327 1-422)": "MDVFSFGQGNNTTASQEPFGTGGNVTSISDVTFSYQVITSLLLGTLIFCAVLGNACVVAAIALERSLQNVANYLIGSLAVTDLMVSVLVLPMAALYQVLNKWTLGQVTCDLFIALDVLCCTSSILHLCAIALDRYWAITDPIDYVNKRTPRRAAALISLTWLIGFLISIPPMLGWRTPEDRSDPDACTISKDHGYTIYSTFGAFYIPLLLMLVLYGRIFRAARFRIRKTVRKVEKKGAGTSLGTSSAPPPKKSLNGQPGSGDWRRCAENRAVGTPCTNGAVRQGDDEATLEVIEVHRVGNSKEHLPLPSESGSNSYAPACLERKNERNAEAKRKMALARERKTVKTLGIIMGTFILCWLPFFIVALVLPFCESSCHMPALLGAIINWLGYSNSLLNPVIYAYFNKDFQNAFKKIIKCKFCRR", "test": "Inhibition of 3H-8-OH-DPAT binding at 5-HT1A in vitro (rat cerebral cortex synaptosomal membranes)", "set-up": "species or system Male Sprague-Dawley rats (cerebral cortex)", "procedure": "This general procedure is set forth in Wong et al., J. Neural Transm. 71:207-218 (1988).\nMale Sprague-Dawley rats (110-150 g) from Harlan Industries (Cumberland, Ind.) were fed a Purina Chow ad libitum for at least 3 days before being used in the studies. Rats were killed by decapitation. The brains were rapidly removed, and the cerebral cortices were dissected out at 4° C.\nBrain tissues were homogenized in 0.32M sucrose. After centrifugation at 1000×g for 10 min and then at 17000×g for 20 min, a crude synaptosomal fraction was sedimented. The pellet was suspended in 100 vol of 50 mM Tris-HCl, pH 7.4, incubated at 37° C. for 10 min, and centrifuged at 50000×g for 10 min. The process was repeated and the final pellet was suspended in ice-chilled 50 mM Tris-HCl, pH 7.4. By the radioligand binding method, sites specifically labeled by tritiated 8-hydroxy-2-dipropylamino1,2,3,4-tetrahydronaphthalene (^3 H-8-OH-DPAT) have been identified as 5-HT1A receptors.\nBinding of (hu 3H-8-OH-DPAT) was performed according to the previously described method [Wong et. al., J. Neural Transm. 64:251-269 (1985)]. Briefly, synaptosomal membranes isolated from cerebral cortex were incubated at 37° C. for 10 min. in 2 ml of 50 mM Tris-HCl, pH 7.4; 10 μM pargyline; 0.6 mM ascorbic acid; and 0.4 nM ^3 H-8-OH-DPAT. Binding was terminated by filtering samples under reduced pressure through glass fiber (GFB) filters. The filters were washed twice with 5 ml of ice cold buffer and placed in scintillation vials with 10 ml of PCS (Amersham/Searle) scintillation fluid. Radioactivity was measured with a liquid scintillation spectrometer. Unlabeled 8-OH-DPAT at 10 μM was also included in separate samples to establish non-specific binding. Specific binding of ^3 H-8-OH-DPAT is defined as the difference of radioactivity bound in the absence and in the presence of 10 μM unlabeled 8-OH-DPAT."}, "[1]": {"test": "Hygroscopicity observed on isolation of the salt", "format": "physicochemical", "settings": "fumarate salt, recrystallized from ethanol/diethyl ether", "procedure": "To a solution of water (60 mL) which contains methanesulfonic acid (0.16 mL, 2.33 mMol) was added 2-di-propylamino-8-methylthio-1,2,3,4-tetrahydronaphthalene (630 mg, 2.33 mMol). To this solution was added a solution of sodium metaperiodate (550 mg, 2.57 mMol) in water (10 mL), and the reaction mixture was stirred for two days at room temperature. The reaction mixture was made basic (NH4 OH) and extracted with dichloromethane. The organic extracts were combined, dried (Na2 SO4) and concentrated in vacuo to give the crude title compound as a light yellow oil. Purification by flash chromatography (3% methanol in dichloromethane+tr. NH4 OH) gave the desired product (580 mg, 85%) as a colorless oil. The fumarate salt was formed. […] Drying in a vacuum dessicator (60° C., 18 hours) gave a colorless glass (260 mg, m.p. =63° C.)."}, "[2]": {"test": "Effectiveness by subcutaneous (s.c.) administration", "format": "in vivo", "settings": "for minimal effective dose: sc, read-out: minimum effective dose when administered subcutaneously"}, "[3]": {"tested_on": "5-hydroxyindoleacetic acid (5-HIAA), a metabolite of 5-HT, in whole brain", "test": "Effectiveness by oral administration: decrease in brain concentration of 5-HIAA", "format": "in vivo, male Sprague-Dawley rats", "settings": "p.o.; for minimal effective dose: Rattus norvegicus, po, 2 h, read-out: minimum effective dose when administered orally; for Percent Reduction over Control (5-HIAA) / 5-HIAA Concentration in Whole Brain: 2 hours; for 5-HIAA Concentration in Whole Brain: control 1.67 ± 0.08", "procedure": "The activity of compounds of this invention when administered orally was determined and compared with literature compounds structurally related to the compounds of this invention. Thus, the test compound was administered to male Sprague-Dawley rats orally (p.o.), five rats being used in each test group. The rats were sacrificed two hours following p.o. administration, and the brain concentration of 5-hydroxyindoleacetic acid (5-HIAA), a metabolite of 5-HT, was measured."}}, "note": "Structures can show the parent of a compound that is named as a salt. Where two headings read alike, the source gives them in different places."}
{"compound": "CCCN(CCC)C1CCc2cccc(Sc3ccc(C)cc3)c2C1", "note": "(stereo not drawn) [Example 9]", "values": [{"measurement": "IC50", "setting": "5-HT1A receptors", "value": 0.059, "unit": "µM"}]}
{"compound": "CCCN(CCC)C1CCc2cccc(S(C)(=O)=O)c2C1", "note": "(stereo not drawn) [Example 6, 2-Di-n-propylamino-8-methylsulfonyl-1,2,3,4-tetrahydronaphthalene]", "values": [{"measurement": "IC50", "setting": "5-HT1A receptors", "value": 0.01, "unit": "µM"}]}
{"compound": "CCCN(CCC)C1CCc2cccc([S+](C)[O-])c2C1", "note": "(stereo not drawn) [Example 5, 2-Di-n-propylamino-8-methylsulfinyl-1,2,3,4-tetrahydronaphthalene]", "values": [{"measurement": "hygroscopicity", "setting": "[1]", "value": "extremely hygroscopic"}, {"measurement": "IC50", "setting": "5-HT1A receptors", "value": 0.0711, "unit": "µM"}]}
{"compound": "CCCN(CCC)C1CCc2cccc(SCC)c2C1", "note": "(stereo not drawn) [Example 2, 2-Di-n-propylamino-8-thioethyl-1,2,3,4-tetrahydronaphthalene]", "values": [{"measurement": "IC50", "setting": "5-HT1A receptors", "value": 0.0307, "unit": "µM"}]}
{"compound": "CCCN(CCC)C1COc2cccc(SC)c2C1", "note": "(stereo not drawn) [Example 11, 3-(Di-n-propylamino)-5-methylthio-chromane hydrochloride]", "values": [{"measurement": "IC50", "setting": "5-HT1A receptors", "value": 0.0025, "unit": "µM"}]}
{"compound": "CCCN(CCC)C1CCc2cccc(O)c2C1", "note": "(stereo not drawn) [Example 8-OH-DPAT, 8-hydroxy-2-dipropylamino1,2,3,4-tetrahydronaphthalene, reference compound]", "values": [{"measurement": "minimal effective dose", "setting": "[2]", "value": "~0.03", "unit": "mg/kg"}, {"measurement": "minimal effective dose", "setting": "[3]", "value": "~10", "unit": "mg/kg"}, {"measurement": "Percent Reduction over Control (5-HIAA)", "setting": "[3]; 0.1 mg/Kg", "value": 0, "unit": "%"}, {"measurement": "5-HIAA Concentration in Whole Brain", "setting": "[3]; 0.1 mg/Kg", "value": "1.62 ± 0.07", "unit": "nmol/g"}, {"measurement": "Percent Reduction over Control (5-HIAA)", "setting": "[3]; 1 mg/Kg", "value": 0, "unit": "%"}, {"measurement": "5-HIAA Concentration in Whole Brain", "setting": "[3]; 1 mg/Kg", "value": "1.75 ± 0.05", "unit": "nmol/g"}, {"measurement": "Percent Reduction over Control (5-HIAA)", "setting": "[3]; 10 mg/Kg", "value": 16, "unit": "%"}, {"measurement": "5-HIAA Concentration in Whole Brain", "setting": "[3]; 10 mg/Kg", "value": "1.40 ± 0.06", "unit": "nmol/g"}]}
{"compound": "CCCN(CCC)C1CCc2cccc(Sc3ccccc3)c2C1", "note": "(stereo not drawn) [Example 3, 2-Di-n-propylamino-8-thiophenyl-1,2,3,4-tetrahydronaphthalene]", "values": [{"measurement": "IC50", "setting": "5-HT1A receptors", "value": 0.0222, "unit": "µM"}]}
{"compound": "CCCN(CCC)C1CCc2cccc(SCc3ccccc3)c2C1", "note": "(stereo not drawn) [Example 4, 2-Di-n-propylamino-8-thiobenzyl-1,2,3,4-tetrahydronaphthalene]", "values": [{"measurement": "IC50", "setting": "5-HT1A receptors", "value": 0.0028, "unit": "µM"}]}
{"compound": "CCCN(CCC)C1CCc2cccc(SC)c2C1", "note": "(stereo not drawn) [Example 1, 2-Di-n-propylamino-8-thiomethyl1,2,3,4-tetrahydronaphthalene]", "values": [{"measurement": "minimal effective dose", "setting": "[2]", "value": "~0.3", "unit": "mg/kg"}, {"measurement": "potency relative to 8-OH-DPAT, subcutaneous", "setting": "[2]; vs 8-OH-DPAT", "value": "about ten-fold less potent"}, {"measurement": "minimal effective dose", "setting": "[3]", "value": "~1", "unit": "mg/kg"}, {"measurement": "Percent Reduction over Control (5-HIAA)", "setting": "[3]; 0.1 mg/Kg", "value": 0, "unit": "%"}, {"measurement": "5-HIAA Concentration in Whole Brain", "setting": "[3]; 0.1 mg/Kg", "value": "1.56 ± 0.04", "unit": "nmol/g"}, {"measurement": "Percent Reduction over Control (5-HIAA)", "setting": "[3]; 1 mg/Kg", "value": 13, "unit": "%"}, {"measurement": "5-HIAA Concentration in Whole Brain", "setting": "[3]; 1 mg/Kg", "value": "1.45 ± 0.03", "unit": "nmol/g"}, {"measurement": "Percent Reduction over Control (5-HIAA)", "setting": "[3]; 10 mg/Kg", "value": 25, "unit": "%"}, {"measurement": "5-HIAA Concentration in Whole Brain", "setting": "[3]; 10 mg/Kg", "value": "1.25 ± 0.06", "unit": "nmol/g"}, {"measurement": "minimum effective dose relative to 8-OH-DPAT, oral", "setting": "[3]; vs 8-OH-DPAT", "value": "about ten-fold less"}, {"measurement": "IC50", "setting": "5-HT1A receptors", "value": 0.0003, "unit": "µM"}]}
{"compound": "CCCN(CCC)C1CCc2cccc(Sc3ccccn3)c2C1", "note": "(stereo not drawn) [Example 10]", "values": [{"measurement": "IC50", "setting": "5-HT1A receptors", "value": 0.009, "unit": "µM"}]}
{"compound": "CCCN(CCC)[C@@H]1CCc2cccc(SC)c2[C@@H]1C", "note": "(relative stereo) [Example 8, cis-1-Methyl-2-di-n-propylamino-8-thiomethyl-1,2,3,4-tetrahydronaphthalene]", "values": [{"measurement": "IC50", "setting": "5-HT1A receptors; 0.4 nM 3H-8-OH-DPAT, rat cerebral cortex synaptosomal membranes, 37° C., 10 min, pH 7.4, read-out: IC50, 5HT1a (concentration required to inhibit the binding of 3H-8-OH-DPAT by 50%)", "value": 0.297, "unit": "µM"}]}
{"compound": "CSc1cccc2c1CC(N(C)C)CC2", "note": "(stereo not drawn) [Example 7, 2-Dimethylamino-8-thiomethyl-1,2,3,4-tetrahydronaphthalene]", "values": [{"measurement": "IC50", "setting": "5-HT1A receptors", "value": 0.021, "unit": "µM"}]}
